Measurements reported in article PMC8230625 (International Journal of Molecular Sciences, 2021).
Several values for one entry are separate records, joined by “and”; a condition that tells them apart may be missing. Equal entries are not always repeated. Where two headings read alike, the source gives them in different places.

Tests used:
HeLa cells = assay: in vitro; settings: for Concentration at (and above) which statistically significant (p < 0.01) decrease in cell viability was noticed: 24 h incubation, single compound; for IC50: Homo sapiens, read-out: Dm (IC50), viability of HeLa cells (ATP/well)
Procedure: (§1) The HeLa cervical cancer adherent cell line (ATCC: CCL-2) was applied for the evaluation of individual and combined effects of mycotoxins on cell viability. The cells were cultured in DMEM (high glucose, 4500 mg/L) with 10% FBS, penicillin (100 U/mL), and streptomycin (100 μg/mL) in sterile plastic cell culture flasks (75 cm^2; 5% CO2, 37 °C). The cells were trypsinized and plated onto 96-well sterile plastic plates. Stock solutions (each 5000 μM) of ZEN, ZELs, ZAN, and ZALs used in cell experiments were prepared in 96 v/v% ethanol (spectroscopic grade; VWR, Debrecen, Hungary). Stock solutions of AOH (5000 μM or 40 mM) were prepared in spectroscopic grade dimethyl sulfoxide (DMSO; Fluka, Morris Plains, NJ, USA). Mycotoxin stock solutions were stored at −20 °C.
(§2) HeLa cells were treated with ZEN, α/β-ZEL, ZAN, α/β-ZAL, and AOH (0–250 μM) for 24 h. […] The cell viability was evaluated based on the ATP levels/well employing a previously described method without modifications.
(§3) Combined effects were evaluated based on combination indices (CI) determined using the CompuSyn software (ComboSyn Inc., Paramus, NJ, USA) by the median-effect equation of the mass-action law:(1) logfa/fu=m×log(D)−m×log(Dm), where fa and fu are the affected and unaffected fractions of the system, respectively; D represents the dose, Dm denotes the dose necessary for the production of median effect, while m is the sigmoidicity coefficient (m > 1 sigmoidal, m = 1 hyperbolic, m < 1 flat sigmoidal).
(§4) The combined effects of mycotoxins were determined by the CI values calculated based on the following equation [68]:(2) CI=(D)1/(Dx)1+(D)2/(Dx)2, where (Dx)1 and (Dx)2 are the individual doses necessary for the production of x% effect, while (D)1 and (D)2 are the doses of the two compounds that combined evoke the same effect as (Dx)1 alone or (Dx)2 alone, i.e., the targeted x% effect.

in vitro = settings: human
Procedure: as §1, §2, §3, §4

[1] = target: T1, hERα (Saccharomyces cerevisiae BLYES strain) (Homo sapiens, UniProt P03372); assay: cell-based; assay type: cell-based; settings: for Concentration at (and above) which statistically significant (p < 0.01) estrogenic effect was observed: single compound; for CI Value (combination index) / Combined Estrogenic Effect / Combined Estrogenic Effect (grade symbol): + 6.28 × 10^−2 µM ZEN; for Combined estrogenic effect in Figure 5B: + 62.8 ×10^-3 μM ZEN
T1 construct: expressed in transfected cells; host or cells: Saccharomyces cerevisiae BLYES strain (hERα gene integrated in the chromosome)
T1 sequence (P03372 whole entry): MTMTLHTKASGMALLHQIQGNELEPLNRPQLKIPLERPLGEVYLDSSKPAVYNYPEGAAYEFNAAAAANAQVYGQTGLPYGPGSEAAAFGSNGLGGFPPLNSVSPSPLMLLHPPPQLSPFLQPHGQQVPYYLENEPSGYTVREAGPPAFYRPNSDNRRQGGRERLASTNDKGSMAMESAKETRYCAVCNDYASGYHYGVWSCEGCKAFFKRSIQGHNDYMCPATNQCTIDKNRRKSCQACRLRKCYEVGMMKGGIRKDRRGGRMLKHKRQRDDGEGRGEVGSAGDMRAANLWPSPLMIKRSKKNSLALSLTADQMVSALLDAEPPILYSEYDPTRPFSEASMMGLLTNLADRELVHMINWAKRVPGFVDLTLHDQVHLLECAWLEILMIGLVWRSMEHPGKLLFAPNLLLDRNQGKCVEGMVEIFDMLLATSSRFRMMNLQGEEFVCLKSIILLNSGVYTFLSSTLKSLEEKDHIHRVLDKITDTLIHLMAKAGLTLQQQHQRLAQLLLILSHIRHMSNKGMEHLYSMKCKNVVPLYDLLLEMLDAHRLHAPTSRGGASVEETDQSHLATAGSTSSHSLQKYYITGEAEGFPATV
Source text: The Saccharomyces cerevisiae BLYES strain was applied to examine the estrogenic activity of the compounds tested. This bioluminescent yeast bioreporter harbors the hERα gene on its chromosome, and it has two plasmids with genes responsible for bioluminescence. The pUTK404 plasmid contains luxC, -D, and -E genes from Photorhabdus luminescens and flavin oxidoreductase gene (frp) from Vibrio harveyi. The pUTK407 plasmid contains tandem estrogen responsive elements (EREs) that initiate the transcription of luxA and luxB genes after binding the dimer formed by estrogen receptor—ligand complexes.
S. cerevisiae BLYES strain was grown in 30 mL of yeast growth medium (YMM leu-, ura-) for 18–20 h at 30 °C.
Stock solutions of the compounds tested were prepared in methanol and stored at −20 °C. Estrogen assays were carried out on 96-well (PS, F-bottom) microplates (Greiner Bio-One Hungary Ltd., Mosonmagyaróvár, Hungary). In single compound tests, stock solutions of the compounds were serially diluted with methanol; whereas, in co-exposure experiments, a 20-µL mixture of the solutions was placed into the wells of the microplates. After the evaporation of methanol, yeast culture (200 µL; OD600 of 1.000 ± 0.050) were pipetted into each well. E2 was applied as a positive control, while wells containing only yeast cells and yeast cells with methanol served as negative and solvent controls, respectively. Bioluminescence (cps, counts per second) was measured after 5-h incubation (30 °C) with a VictorX Multilabel Plate Reader (Perkin Elmer Inc., Waltham, MA, USA).
as §3, §4
Zero percent was defined in each measurement as the mean of the methanol control values, and 100% was defined as the mean of all plateau values of single compounds’ concentration—response curves.

[2] = HeLa, 24 h, 10 µM (lower toxic concentration) of the compound + 20 µM ZEN
[3] = HeLa, 24 h, 10 µM of the compound + 20 µM ZEN
[4] = HeLa, 24 h, 30 µM (higher toxic concentration) of the compound + 20 µM ZEN
[5] = HeLa, 24 h, 30 µM of the compound + 20 µM ZEN
[6] = BLYES, higher concentration (µM): α-ZEL 1.25 × 10^−2, β-ZEL 2.43, ZAN 4.99 × 10^−2, α-ZAL 2.48 × 10^−2, β-ZAL 2.48 × 10^−1, GEN 1.48
[7] = BLYES, higher estrogenic concentration of the compound (as E22)
[8] = BLYES, lower concentration (µM): α-ZEL 6.24 × 10^−3, β-ZEL 1.22, ZAN 2.50 × 10^−2, α-ZAL 1.24 × 10^−2, β-ZAL 1.24 × 10^−1, GEN 7.4 × 10^−1
[9] = BLYES, lower estrogenic concentration of the compound (as E21)
[10] = BLYES, higher estrogenic concentration of the compound (as E20)
[11] = BLYES, lower estrogenic concentration of the compound (as E19)

## C[C@H]1CCCC(=O)CCC/C=C/c2cc(O)cc(O)c2C(=O)O1 [ZEN, zearalenone]
HeLa cells; HeLa
  Concentration at (and above) which statistically significant (p < 0.01) decrease in cell viability was noticed: 10 µM
HeLa cells; HeLa, 24 h
  IC50: 56.4 µM
HeLa cells; read-out: Decrease in cellular ATP levels (% of control), individual effect, HeLa, 24 h, single compound at 20 μM, 20 µM
  cytotoxicity: ~30%
In vitro; Decrease in cellular ATP levels (% of control), individual effect, HeLa, 24 h, single compound at 20 μM
  cytotoxicity at 24 h, 20 µM: 30.1%
[1]
  EC50: 0.46 µM
[1]; BLYES, ZEN alone at 62.8 ×10^-3 μM (6.3 × 10^−2 µM)
  Estrogenic effect (% increase), individual effect: approximately 20%
[1]; BLYES
  Concentration at (and above) which statistically significant (p < 0.01) estrogenic effect was observed: 0.031 µM

## C[C@H]1CCC[C@H](O)CCCCCc2cc(O)cc(O)c2C(=O)O1 [α-ZAL, α-zearalanol]
HeLa cells
  CI Value (combination index): 0.78 and 0.52
HeLa cells; [2]
  Combined cytotoxic effect in Figure 3B: Syn
HeLa cells; [3]
  Combined Cytotoxic Effect: Synergism (CI < 0.8: synergism)
  Combined Cytotoxic Effect (grade symbol): ++ (CI < 0.60: ++)
HeLa cells; [4]
  Combined cytotoxic effect in Figure 3B: Syn
HeLa cells; [5]
  Combined Cytotoxic Effect: Synergism (CI < 0.8: synergism)
  Combined Cytotoxic Effect (grade symbol): + (0.60 < CI < 0.80: +)
HeLa cells; HeLa, 24 h, co-exposure with toxic concentration of ZEN (20 μM), compared to ZEN-exposed cells, Figure 3A
  Effect of the non-toxic (subtoxic) concentration of the compound on ATP levels of ZEN-exposed cells: statistically significant (p < 0.01) decreases in ATP levels
HeLa cells; HeLa
  Concentration at (and above) which statistically significant (p < 0.01) decrease in cell viability was noticed: 20 µM
HeLa cells; HeLa, 24 h
  IC50: 63.8 µM
In vitro
  cytotoxicity at 10 µM: 1.9%
  cytotoxicity at 30 µM: 19.3%
[1]
  EC50: 0.019 µM
[1]; [6]
  CI Value (combination index): 1.16
[1]; [7]
  Combined Estrogenic Effect: Additive effect (0.8 < CI < 1.2: additive effect)
  Combined Estrogenic Effect (grade symbol): ± (0.80 < CI < 1.20: ±)
[1]; [8]
  CI Value (combination index): 0.97
[1]; [9]
  Combined Estrogenic Effect: Additive effect (0.8 < CI < 1.2: additive effect)
  Combined Estrogenic Effect (grade symbol): ± (0.80 < CI < 1.20: ±)
[1]; [10]
  Combined estrogenic effect in Figure 5B: additive combined effects
[1]; [11]
  Combined estrogenic effect in Figure 5B: additive combined effects
[1]; BLYES
  Concentration at (and above) which statistically significant (p < 0.01) estrogenic effect was observed: 0.024 µM

## C[C@H]1CCC[C@H](O)CCC/C=C/c2cc(O)cc(O)c2C(=O)O1 [α-ZEL, α-zearalenol]
HeLa cells; [2]
  Combined cytotoxic effect in Figure 3B: Syn
HeLa cells; [3]
  Combined Cytotoxic Effect: Synergism (CI < 0.8: synergism)
  Combined Cytotoxic Effect (grade symbol): ++ (CI < 0.60: ++)
HeLa cells; HeLa, 24 h, 10 µM of the compound + 20 µM ZEN, CompuSyn
  CI Value (combination index): 0.57
HeLa cells; [4]
  Combined cytotoxic effect in Figure 3B: Add
HeLa cells; [5]
  Combined Cytotoxic Effect: Additive effect (0.8 < CI < 1.2: additive effect)
  Combined Cytotoxic Effect (grade symbol): ± (0.80 < CI < 1.20: ±)
HeLa cells; HeLa, 24 h, 30 µM of the compound + 20 µM ZEN, CompuSyn
  CI Value (combination index): 0.81
HeLa cells; HeLa
  Concentration at (and above) which statistically significant (p < 0.01) decrease in cell viability was noticed: 20 µM
HeLa cells; HeLa, 24 h
  IC50: 44.6 µM
In vitro
  cytotoxicity at 10 µM: 5.5%
  cytotoxicity at 30 µM: 38.4%
[1]
  EC50: 0.019 µM
[1]; [6]
  CI Value (combination index): 0.41
[1]; [7]
  Combined Estrogenic Effect: Synergism (CI < 0.8: synergism)
  Combined Estrogenic Effect (grade symbol): ++ (CI < 0.60: ++)
[1]; [8]
  CI Value (combination index): 0.37
[1]; [9]
  Combined Estrogenic Effect: Synergism (CI < 0.8: synergism)
  Combined Estrogenic Effect (grade symbol): ++ (CI < 0.60: ++)
[1]; [10]
  Combined estrogenic effect in Figure 5B: synergism
[1]; [11]
  Combined estrogenic effect in Figure 5B: synergism
[1]; BLYES, co-treatment with ZEN (approx. 20% estrogenicity), α-ZEL 1.56 × 10^−3 µM, ZAN 6.24 × 10^−3 µM, AOH up to 48.4 µM, Figure 5A
  Effect of subtoxic (non-estrogenic) concentration of the compound on the estrogenic effect of ZEN: statistically significant (p < 0.05) increases
